Patent US6436979B1 (priority 2000, dated 2002)
Like-named read-outs stand apart in the source and are kept apart here.

Test system: Phytophthora infestans
Format: in vivo
Conditions: tomato leaves infected next day with zoospore suspension, evaluated after 6 days, untreated control 89% infection
[1] = conc. in the spray liquor 0.06 ppm
[2] = conc. in the spray liquor 0.25 ppm

Compound | Efficacy in % of the untreated control [1] [%] | Efficacy in % of the untreated control [2] [%]
COC(=O)N(OC)c1ccccc1COc1ccn(-c2ccc(Cl)cc2)n1 [Compound I.32] | 10 | 55
COC(=O)N(OC)c1ccccc1COc1ccn(-c2ccc(C)cc2)n1 [Compound I.38] | 0 | 33
CNC(=O)C(=NOC)c1ccccc1COc1cc(C)ccc1C [Compound III] | 0 | 33
CC(C)OC(=O)NC(C(=O)NC(C)c1nc2ccc(F)cc2s1)C(C)C (centres unmarked) [Compound IV/1] | 21 | –
CON=C(C(=O)OC)c1ccccc1COc1ccccc1C [Compound II] | 10 | –
